US8877752B2, “4(1H)-quinolones having antimalarial activity with reduced chemical resistance” (University of South Florida, priority 2011, dated 2014)
Where two headings read alike, the source gives them in different places.

Key:
[1] = test system: P. falciparum clone W2/Indochina (chloroquine- and pyrimethamine-resistant); assay: in vitro antimalarial activity against W2 (SYBR Green I); assay type: cell-based; conditions: for EC50: Plasmodium falciparum, P. falciparum W2, 72 hrs incubation; for antimalarial activity against W2 (in words): comparison; for less active against W2 in comparison to 17: relative to reference compound 17
Procedure: (§1) All synthesized quinolones were tested as described in Cross et al., (2010) J. Med. Chem. 53, 7076-7094 and Reid et al., (2011) Bioorg.
(§2) Parasite Culturing: P. falciparum clone W2/Indochina and TM90C2B/Thailand were grown in continuous culture using RPMI 1640 media containing 10% heat-inactivated type A+ human plasma, sodium bicarbonate (2.4 g/L), HEPES (5.94 g/L) and 4% washed human type A+ erythrocytes. Cultures were gassed with a 90% nitrogen, 5% oxygen and 5% carbon dioxide mixture followed by incubation at 37° C.
(§3) Assay Preparation: Test compounds at 5 mg/mL in DMSO were diluted at least 1:400 and then serially diluted in duplicate over 11 concentrations. P. falciparum cultures with greater than 70% ring stage parasites were diluted to 0.5-0.7% parasitemia and 1.5% hematocrit in RPMI 1640 media. In 96-well plates a volume of 90 μl/well of parasitized erythrocytes was added on top of 10 μL/well of the test compound. […] A Beckman Coulter Biomek 3000 was used to dispense test compounds, control drugs and parasitized erythrocytes into the microtiter plates. Positive and negative controls were included in each plate. […] Assay plates were placed into a plastic gassing chamber and equilibrated with 90% nitrogen, 5% oxygen and 5% carbon dioxide mixture then incubated at 37° C. for 72 hrs. The assay plates were then frozen at −80° C. until later processed for parasite growth determinations.
(§4) SYBR Green I Processing: Assay plates were removed from −80° C. storage and allowed to thaw at room temperature. Using the Beckman Biomek 3000, 100 μL was transferred from the assay plates into 96-well black assay plates. Next, 100 μl of SYBR green I (Invitrogen) in 2× lysis buffer (0.2 μl SYBR green I/mL of 2× lysis buffer (0.008% saponin, 0.08% Triton X-100, 20 mM Tris and 5 mM EDTA)) was dispensed into each well of the 96-well black assay plate using the Beckman Coulter Biomek 3000. Upon addition of SYBR green I the microtiter plates were incubated for 1 hrs. in the dark. Relative Fluorescence units (RFU) were read using a Molecular Devices Spectramax microplate reader.
(§5) Data Analysis: Data analysis was performed using a custom database manager (Dataspects, Inc). Nonlinear regression analysis was used to calculate EC50.

[2] = test system: P. falciparum TM90-C2B/Thailand (chloroquine-, mefloquine-, pyrimethamine-, and atovaquone-resistant); assay: in vitro antimalarial activity against TM90-C2B (SYBR Green I); assay type: cell-based; conditions: for EC50: Plasmodium falciparum, read-out: EC50 against TM90-C2B; for resistance index RI=EC50(TM90-C2B)/EC50(W2): RI 0.3-3.0 considered acceptable; for less potent against TM90-C2B than against W2: W2 versus TM90-C2B; for antimalarial activity against TM90-C2B (in words): comparison; for more potent against TM90-C2B compared to 27: relative to compound 27
Procedure: as §1, §2, §3, §4, §5

[3] = test system: P. cynomolgi sporozoites; conditions: treated 5 to 7 consecutive days, cited from earlier work
[4] = P. falciparum TM90-C2B, 72 hrs incubation

O=C1C(O)=C([C@H]2CC[C@H](c3ccc(Cl)cc3)CC2)C(=O)c2ccccc21 [ATO, atovaquone, reference compound]
EC50 [1]: 0.53 nM | EC50 [2, 4]: > 170 nM

CCCCc1cc2c(=O)c(C(=O)OC)c(C)[nH]c2cc1OCCOc1ccccc1 [Compound 5, Methyl 6-butyl-2-methyl-4-oxo-7-(2-phenoxyethoxy)-1,4-dihydroquinoline-3-carboxylate, reference compound]
EC50 [1]: 0.05 nM | EC50 [2, 4]: 11.2 nM | resistance index RI=EC50(TM90-C2B)/EC50(W2) [2]: 223 | less potent against TM90-C2B than against W2 [2]: approximately 220 | relapse after 120 days of exposure ([3]; rhesus monkeys inoculated intravenously with sporozoites): no relapse | curative dose ([3]; rhesus monkeys): 15 mg/kg

CCCCc1cc2c(=O)c(CC)c(C)[nH]c2cc1OCCOc1ccccc1 [Compound 16, 6-butyl-3-ethyl-2-methyl-7-(2-phenoxyethoxy)quinolin-4(1H)-one]
EC50 [1]: 1.92 nM | EC50 [2, 4]: 0.15 nM | resistance index RI=EC50(TM90-C2B)/EC50(W2) [2]: 0.08

CCc1c(C)[nH]c2cc(OCCOc3ccccc3)c(Cl)cc2c1=O [Compound 17, 6-chloro-3-ethyl-2-methyl-7-(2-phenoxy-ethoxy)-1H-quinolin-4-one]
antimalarial activity against W2 (in words) [1]: slightly reduced activities | antimalarial activity against TM90-C2B (in words) [2]: unaffected or slightly improved

CCc1c(C)[nH]c2cc(OCCOc3ccccc3)c(C)cc2c1=O [Compound 18, 3-ethyl-2,6-dimethyl-7-(2-phenoxy-ethoxy)-1H-quiolin-4-one]
antimalarial activity against W2 (in words) [1]: less active | more potent against TM90-C2B compared to 27 [2]: 3 fold

CCc1c(C)[nH]c2cc(OCCOc3ccccc3)c(OC)cc2c1=O [Compound 19]
antimalarial activity against W2 (in words) [1]: less active | more potent against TM90-C2B compared to 27 [2]: 3 fold

CCc1c(C)[nH]c2cc(OCOC)c(Cl)cc2c1=O [Compound 20, 6-chloro-3-ethyl-7-methoxymethoxy-2-methyl-1H-quinoline-4-one]
less active against W2 in comparison to 17 [1]: approximately 4 fold

CCc1c(C)[nH]c2cc(OCCN3CCOCC3)c(Cl)cc2c1=O [Compound 23, 6-chloro-3-ethyl-2-methyl-7-(2-morpholin-4-yl-ethoxy)-1H-quinolin-4-one]
melting point: 270 to 271 °C

CCc1c(C)[nH]c2cc(OCCN(C)C)c(Cl)cc2c1=O [Compound 24, 6-chloro-7-(2-dimethylamino-ethoxy)-3-ethyl-2-methyl-1H-quinolin-4-one]
melting point: 227 to 230 °C

CCc1c(C)[nH]c2cc(OCCOc3ccccc3)c(Br)cc2c1=O [Compound 25, 6-bromo-3-ethyl-2-methyl-7-(2-phenoxy-ethoxy)-1H-quinolin-4-one]
antimalarial activity against W2 (in words) [1]: slightly reduced activities | antimalarial activity against TM90-C2B (in words) [2]: unaffected or slightly improved

CCc1c(C)[nH]c2cc(OCCCN3CCN(c4ccccc4)CC3)c(Cl)cc2c1=O [Compound 26, 6-chloro-3-ethyl-2-methyl-7-[3-(4-phenyl-piperazin-1-yl)-propoxy]-1H-quinolin-4-one]
less active against W2 in comparison to 17 [1]: approximately 4 fold

CCc1c(C)[nH]c2cc(OCCOc3ccccc3)ccc2c1=O [Compound 27, 3-ethyl-2-methyl-7-(2-phenoxyethoxy)quinolin-4(1H)-one]
EC50 [1]: 104 nM | EC50 [2, 4]: 71.3 nM

CCCCc1cc2c(=O)c(-c3ccccc3)c(C)[nH]c2cc1OCCOc1ccccc1 [Compound 31, 6-butyl-2-methyl-7-(2-phenoxyethoxy)-3-phenylquinolin-4(1H)-one]
EC50 [2, 4]: 764 nM

CCCCc1cc2c(=O)c(-c3ccncc3)c(C)[nH]c2cc1OCCOc1ccccc1 [Compound 32, 6-butyl-2-methyl-7-(2-phenoxyethoxy)-3-(pyridin-4-yl)quinolin-4(1H)-one]
antimalarial activity against W2 (in words) [1]: moderate activity in low micromolar or high nanomolar range | antimalarial activity against TM90-C2B (in words) [2]: moderate activity in low micromolar or high nanomolar range

CCCCc1cc2c(=O)c(-c3cccnc3)c(C)[nH]c2cc1OCCOc1ccccc1 [Compound 33, 6-butyl-2-methyl-7-(2-phenoxyethoxy)-3-(pyridin-3-yl)quinolin-4(1H)-one]
antimalarial activity against W2 (in words) [1]: moderate activity in low micromolar or high nanomolar range | antimalarial activity against TM90-C2B (in words) [2]: moderate activity in low micromolar or high nanomolar range

CCCCc1cc2c(=O)c(-c3ccc(OC(F)(F)F)cc3)c(C)[nH]c2cc1OCCOc1ccccc1 [Compound 35, 6-butyl-2-methyl-7-(2-phenoxyethoxy)-3-(4-(trifluoromethoxy)phenyl)quinolin-4(1H)-one]
EC50 [1]: 27.9 nM | EC50 [2, 4]: 31 nM | resistance index RI=EC50(TM90-C2B)/EC50(W2) [2]: 1.1

CCCCc1cc2c(=O)c(-c3cccc(Oc4ccc(F)cc4)c3)c(C)[nH]c2cc1OCCOc1ccccc1 [Compound 36, 6-butyl-3-(3-(4-fluorophenoxy)phenyl)-2-methyl-7-(2-phenoxyethoxy)quinolin-4(1H)-one]
antimalarial activity against W2 (in words) [1]: inactive | antimalarial activity against TM90-C2B (in words) [2]: inactive

CCCCc1cc2c(=O)c(-c3ccc(COc4ccc(OC(F)(F)F)cc4)cc3)c(C)[nH]c2cc1OCCOc1ccccc1 [Compound 37, 6-butyl-2-methyl-7-(2-phenoxyethoxy)-3-(4-((4-(trifluoromethoxy)phenoxy)methyl)phenyl) quinolin-4(1H)-one]
antimalarial activity against W2 (in words) [1]: inactive | antimalarial activity against TM90-C2B (in words) [2]: inactive

CCCCc1cc2c(=O)c(-c3ccc(C(F)(F)F)cc3F)c(C)[nH]c2cc1OCCOc1ccccc1 [Compound 41, 6-butyl-3-(2-fluoro-4-(trifluoromethyl)phenyl)-2-methyl-7-(2-phenoxyethoxy)quinolin-4(1H)-one]
resistance index RI=EC50(TM90-C2B)/EC50(W2) [2]: pharmaceutically acceptable

CCCCc1cc2c(=O)c(-c3c(C)noc3C)c(C)[nH]c2cc1OCCOc1ccccc1 [Compound 43, 6-butyl-3-(3,5-dimethylisoxazol-4-yl)-2-methyl-7-(2-phenoxyethoxy)quinolin-4(1H)-one]
EC50 [1]: 27 nM | resistance index RI=EC50(TM90-C2B)/EC50(W2) [2]: pharmaceutically acceptable | less potent against TM90-C2B than against W2 [2]: approximately 5

C[C@H]1[C@@H](O)O[C@@H]2O[C@@]3(C)CC[C@H]4[C@H](C)CC[C@@H]1[C@@]24OO3 [DHA, Dihydroartemisinin, reference compound]
EC50 [1]: 1.8 nM | EC50 ([2]; TM90, 72 h): 0.9 nM
